Legend:
Assay type in all cases: in vivo
[1] = system: Surinam grass (Brachiaria decumbens); test: Test B postemergence
From the text: (§1) Seeds selected from barnyardgrass (Echinochloa crus-galli), Surinam grass (Brachiaria decumbens), cocklebur (Xanthium strumarium), corn (Zea mays), crabgrass (Digitaria sanguinalis), giant foxtail (Setaria faberii), lambsquarters (Chenopodium album), morning glory (Ipomoea hederacea), pigweed (Amaranthus retroflexus), rice (Oryza saliva) and velvetleaf (Abutilon theophrasti) were planted and treated preemergence with test chemicals formulated in a non-phytotoxic solvent mixture which included a surfactant.
(§2) At the same time, plants selected from these crop and weed species and also blackgrass (Alopecurus myosuroides), wheat (Triticum aestivum) and wild oat (Avena fatua) were treated with postemergence applications of test chemicals formulated in the same manner. Plants ranged in height from 2 to 18 cm (1- to 4-leaf stage) for postemergence treatments. Plant species in the flooded paddy test consisted of rice (Oryza saliva), smallflower flatsedge (Cyperus difformis), duck salad (Heteranthera limosa) and barnyardgrass (Echinochloa crus-galli) grown to the 2-leaf stage for testing. Treated plants and controls were maintained in a greenhouse for 13 to 15 days, after which time all species were compared to controls and visually evaluated. Plant response ratings, summarized in Table B, are based on a scale of 0 to 100 where 0 is no effect and 100 is complete control. A dash (-) response means no test result.

[2] = system: barnyardgrass (Echinochloa crus-galli); test: Test B postemergence
From the text: as §1, §2

[3] = system: blackgrass (Alopecurus myosuroides); test: Test B postemergence
From the text: as §1, §2

[4] = system: cocklebur (Xanthium strumarium); test: Test B postemergence
From the text: as §1, §2

[5] = system: corn (Zea mays); test: Test B postemergence
From the text: as §1, §2

[6] = system: crabgrass (Digitaria sanguinalis); test: Test B postemergence
From the text: as §1, §2

[7] = system: giant foxtail (Setaria faberii); test: Test B postemergence
From the text: as §1, §2

[8] = system: lambsquarters (Chenopodium album); test: Test B postemergence
From the text: as §1, §2

[9] = system: morning glory (Ipomoea hederacea); test: Test B postemergence
From the text: as §1, §2

[10] = system: pigweed (Amaranthus retroflexus); test: Test B postemergence
From the text: as §1, §2

[11] = system: velvetleaf (Abutilon theophrasti); test: Test B postemergence
From the text: as §1, §2

[12] = system: wheat (Triticum aestivum); test: Test B postemergence
From the text: as §1, §2

[13] = system: wild oat (Avena fatua); test: Test B postemergence
From the text: as §1, §2

[14] = system: Surinam grass (Brachiaria decumbens); test: Test B preemergence
From the text: as §1, §2

[15] = system: barnyardgrass (Echinochloa crus-galli); test: Test B preemergence
From the text: as §1, §2

[16] = system: cocklebur (Xanthium strumarium); test: Test B preemergence
From the text: as §1, §2

[17] = system: corn (Zea mays); test: Test B preemergence
From the text: as §1, §2

[18] = system: crabgrass (Digitaria sanguinalis); test: Test B preemergence
From the text: as §1, §2

[19] = system: giant foxtail (Setaria faberii); test: Test B preemergence
From the text: as §1, §2

[20] = system: lambsquarters (Chenopodium album); test: Test B preemergence
From the text: as §1, §2

[21] = system: morning glory (Ipomoea hederacea); test: Test B preemergence
From the text: as §1, §2

[22] = system: pigweed (Amaranthus retroflexus); test: Test B preemergence
From the text: as §1, §2

[23] = system: rice (Oryza saliva); test: Test B preemergence
From the text: as §1, §2

[24] = system: velvetleaf (Abutilon theophrasti); test: Test B preemergence
From the text: as §1, §2

[25] = system: barnyardgrass (Echinochloa crus-galli); test: Test C flooded paddy test; conditions: for Barnyardgrass plant response rating: Flooded Paddy, scale 0 to 100, 0 no effect, 100 complete control; for Plant response rating, Barnyardgrass: flooded paddy test, scale 0 to 100 (0 no effect, 100 complete control)
How it was run: (§3)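 2-leaf-stage plants, flooded paddy; treated; greenhouse 12–14 days; compared with controls by eye; rated 0–100 (0 none, 100 complete control).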

[26] = system: duck salad (Heteranthera limosa); test: Test C flooded paddy test; conditions: for Ducksalad plant response rating: Flooded Paddy, scale 0 to 100, 0 no effect, 100 complete control; for Plant response rating, Ducksalad: flooded paddy test, scale 0 to 100 (0 no effect, 100 complete control)
How it was run: as §3

[27] = system: rice (Oryza saliva); test: Test C flooded paddy test; conditions: for Rice plant response rating: Flooded Paddy, scale 0 to 100, 0 no effect, 100 complete control; for Plant response rating, Rice: flooded paddy test, scale 0 to 100 (0 no effect, 100 complete control)
How it was run: as §3

[28] = system: smallflower flatsedge (Cyperus difformis); test: Test C flooded paddy test; conditions: for Flatsedge plant response rating: Flooded Paddy, scale 0 to 100, 0 no effect, 100 complete control; for Plant response rating, Flatsedge: flooded paddy test, scale 0 to 100 (0 no effect, 100 complete control)
How it was run: as §3

[29] = Rate 125 g/ha, scale 0 (no effect) to 100 (complete control), 13 to 15 days
[30] = Rate 500 g/ha, scale 0 to 100, 0 is no effect, 100 is complete control, 13 to 15 days
[31] = Preemergence, Rate 500 g/ha, scale 0 to 100, 0 no effect, 100 complete control
[32] = preemergence, Rate 125 g/ha, scale of 0 to 100 where 0 is no effect and 100 is complete control, 13 to 15 days
[33] = Rate 62 g/ha, scale 0 to 100, 0 no effect, 100 complete control
[34] = Rate 250 g/ha, scale 0 (no effect) to 100 (complete control), 13 to 15 days
[35] = preemergence, Rate 62 g/ha, scale of 0 to 100 where 0 is no effect and 100 is complete control, 13 to 15 days
[36] = preemergence, Rate 250 g/ha, scale 0 to 100, 0 no effect, 100 complete control

CC(C)(C)c1ccn(C2CCN(c3cccc(OC(F)(F)C(F)F)c3)C2=O)n1 (centres unmarked) [Compound 48]
70: Ducksalad plant response rating ([26]; Rate 250 g/ha)
50: Rice plant response rating ([27]; Rate 500 g/ha)
100: Plant response rating, Lambsquarters [20, 31] | Plant response rating, Lambsquarters [20, 32] | Barnyardgrass plant response rating ([25]; Rate 250 g/ha) | Barnyardgrass plant response rating ([25]; Rate 500 g/ha) | Flatsedge plant response rating ([28]; Rate 250 g/ha) | Flatsedge plant response rating ([28]; Rate 500 g/ha)
0: Plant response rating, Surinam grass [1, 29] | Plant response rating, Surinam grass [1, 30] | Plant response rating, Barnyardgrass [2, 29] | Plant response rating, Barnyardgrass [2, 30] | Plant response rating, Blackgrass [3, 29] | Plant response rating, Blackgrass [3, 30] | Plant response rating, Cocklebur [4, 29] | Plant response rating, Cocklebur [4, 30] | Plant response rating, Corn [5, 29] | Plant response rating, Corn [5, 30] | Plant response rating, Crabgrass [6, 29] | Plant response rating, Crabgrass [6, 30] | Plant response rating, Foxtail, Giant [7, 29] | Plant response rating, Foxtail, Giant [7, 30] | Plant response rating, Lambsquarters [8, 29] | Plant response rating, Morningglory [9, 29] | Plant response rating, Morningglory [9, 30] | Plant response rating, Pigweed [10, 29] | Plant response rating, Pigweed [10, 30] | Plant response rating, Velvetleaf [11, 29] | Plant response rating, Velvetleaf [11, 30] | Plant response rating, Wheat [12, 29] | Plant response rating, Wheat [12, 30] | Plant response rating, Wild Oat [13, 29] | Plant response rating, Wild Oat [13, 30] | Plant response rating, Surinam grass [14, 31] | Plant response rating, Surinam grass [14, 32] | Plant response rating, Barnyardgrass [15, 31] | Plant response rating, Barnyardgrass [15, 32] | Plant response rating, Cocklebur [16, 31] | Plant response rating, Cocklebur [16, 32] | Plant response rating, Corn [17, 31] | Plant response rating, Corn [17, 32] | Plant response rating, Crabgrass [18, 32] | Plant response rating, Foxtail, Giant [19, 31] | Plant response rating, Foxtail, Giant [19, 32] | Plant response rating, Morningglory [21, 31] | Plant response rating, Morningglory [21, 32] | Plant response rating, Pigweed [22, 31] | Plant response rating, Pigweed [22, 32] | Plant response rating, Rice [23, 31] | Plant response rating, Rice [23, 32] | Plant response rating, Velvetleaf [24, 31] | Plant response rating, Velvetleaf [24, 32] | Plant response rating, Ducksalad ([26]; Rate 62 g/ha) | Plant response rating, Rice ([27]; Rate 62 g/ha) | Plant response rating, Rice ([27]; Rate 125 g/ha)
20: Plant response rating, Barnyardgrass ([25]; Rate 62 g/ha) | Plant response rating, Ducksalad ([26]; Rate 125 g/ha) | Rice plant response rating ([27]; Rate 250 g/ha)
80: Plant response rating, Lambsquarters [8, 30] | Plant response rating, Crabgrass [18, 31]
90: Ducksalad plant response rating ([26]; Rate 500 g/ha) | Plant response rating, Flatsedge ([28]; Rate 62 g/ha) | Plant response rating, Flatsedge ([28]; Rate 125 g/ha)
40: Plant response rating, Barnyardgrass ([25]; Rate 125 g/ha)

CCOc1cccc(N2CCC(n3ccc(C(CC)CC)n3)C2=O)c1 (centres unmarked) [Compound 125]
50: Plant response rating, Morningglory [9, 33] | Plant response rating, Cocklebur [16, 36] | Plant response rating, Morningglory [21, 35] | Plant response rating, Rice [23, 35]
80: Plant response rating, Barnyardgrass [2, 34] | Plant response rating, Morningglory [21, 36]
0: Plant response rating, Surinam grass [1, 33] | Plant response rating, Surinam grass [1, 34] | Plant response rating, Barnyardgrass [2, 33] | Plant response rating, Blackgrass [3, 33] | Plant response rating, Blackgrass [3, 34] | Plant response rating, Corn [5, 33] | Plant response rating, Corn [5, 34] | Plant response rating, Crabgrass [6, 33] | Plant response rating, Crabgrass [6, 34] | Plant response rating, Foxtail, Giant [7, 33] | Plant response rating, Foxtail, Giant [7, 34] | Plant response rating, Velvetleaf [11, 33] | Plant response rating, Velvetleaf [11, 34] | Plant response rating, Wheat [12, 33] | Plant response rating, Wheat [12, 34] | Plant response rating, Wild Oat [13, 33] | Plant response rating, Wild Oat [13, 34] | Plant response rating, Cocklebur [16, 35] | Plant response rating, Velvetleaf [24, 35] | Plant response rating, Rice ([27]; Rate 62 g/ha)
30: Plant response rating, Cocklebur [4, 33] | Plant response rating, Pigweed [10, 33]
95: Plant response rating, Ducksalad ([26]; Rate 125 g/ha)
65: Plant response rating, Barnyardgrass ([25]; Rate 62 g/ha)
20: Plant response rating, Corn [17, 35]
60: Rice plant response rating ([27]; Rate 500 g/ha)
10: Plant response rating, Rice ([27]; Rate 125 g/ha)
40: Plant response rating, Corn [17, 36] | Plant response rating, Velvetleaf [24, 36] | Plant response rating, Ducksalad ([26]; Rate 62 g/ha) | Rice plant response rating ([27]; Rate 250 g/ha)
100: Plant response rating, Lambsquarters [8, 33] | Plant response rating, Lambsquarters [8, 34] | Plant response rating, Morningglory [9, 34] | Plant response rating, Surinam grass [14, 36] | Plant response rating, Barnyardgrass [15, 35] | Plant response rating, Barnyardgrass [15, 36] | Plant response rating, Crabgrass [18, 35] | Plant response rating, Crabgrass [18, 36] | Plant response rating, Foxtail, Giant [19, 35] | Plant response rating, Foxtail, Giant [19, 36] | Plant response rating, Lambsquarters [20, 35] | Plant response rating, Lambsquarters [20, 36] | Plant response rating, Pigweed [22, 35] | Plant response rating, Pigweed [22, 36] | Plant response rating, Rice [23, 36] | Barnyardgrass plant response rating ([25]; Rate 250 g/ha) | Barnyardgrass plant response rating ([25]; Rate 500 g/ha) | Plant response rating, Barnyardgrass ([25]; Rate 125 g/ha) | Ducksalad plant response rating ([26]; Rate 250 g/ha) | Ducksalad plant response rating ([26]; Rate 500 g/ha) | Flatsedge plant response rating ([28]; Rate 250 g/ha) | Flatsedge plant response rating ([28]; Rate 500 g/ha) | Plant response rating, Flatsedge ([28]; Rate 62 g/ha) | Plant response rating, Flatsedge ([28]; Rate 125 g/ha)
70: Plant response rating, Cocklebur [4, 34] | Plant response rating, Pigweed [10, 34] | Plant response rating, Surinam grass [14, 35]

Reference: patent US7138361B2, “Herbicidal heterocycles” (E. I. du Pont de Nemours and Company, priority 2000, dated 2006)
